Source: patent US20250101041A1, “POSITIVE ALLOSTERIC MODULATORS OF THE MUSCARINIC ACETYLCHOLINE RECEPTOR M4” (Vanderbilt University, priority 2022, published 2025)
pEC50: −log10 of the molar value.

Target: T1, human mAChR M4 (Homo sapiens, UniProt P08173)
T1 construct: expressed in transfected cells; host or cells: CHO-K1 (American Type Culture Collection), stably expressing hM4 and Gqi5
T1 sequence (P08173 1-479): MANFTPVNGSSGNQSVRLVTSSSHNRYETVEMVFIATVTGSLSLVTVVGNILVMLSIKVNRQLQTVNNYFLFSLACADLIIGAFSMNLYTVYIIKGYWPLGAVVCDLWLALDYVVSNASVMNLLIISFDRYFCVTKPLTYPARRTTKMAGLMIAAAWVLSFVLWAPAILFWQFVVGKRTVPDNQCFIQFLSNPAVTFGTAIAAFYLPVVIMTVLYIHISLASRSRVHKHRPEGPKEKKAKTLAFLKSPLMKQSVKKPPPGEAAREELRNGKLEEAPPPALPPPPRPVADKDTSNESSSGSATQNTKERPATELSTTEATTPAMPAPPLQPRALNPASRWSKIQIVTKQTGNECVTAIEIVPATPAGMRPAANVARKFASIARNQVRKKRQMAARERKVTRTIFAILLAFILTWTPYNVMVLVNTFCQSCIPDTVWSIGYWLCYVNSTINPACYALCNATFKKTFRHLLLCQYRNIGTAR
Assay: mAChR M4 cell-based functional assay: calcium mobilization (Fluo-4, FDSS), potentiation of EC20 acetylcholine response in hM4-Gqi5 CHO-K1 cells
Conditions: human M4; for Emax at 30 µM: CHO-K1, % ACh maximum at 30 μM; for pEC50: potentiation of EC20 acetylcholine response, calcium mobilization
In short: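 Readout is the fluorescence-ratio rise at 1 Hz on FDSS, with PAM activity taken as concentration-dependent enhancement of the EC20 acetylcholine response, fitted four-parameter for EC50/Emax. hM4-Gqi5 CHO-K1 cells carried Fluo-4 AM dye; test compounds (11 points, 1:3) preceded EC20 acetylcholine additions at 144 s and 230 s.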

Emax at 30 µM | pEC50 | SMILES
86% | 6.29 | Cc1cc(=O)n2nc(N3CCc4ncc(-c5cc(F)c(F)cc5F)cc4C3)c(C)cc2n1 [Compound 1-208, 2,8-dimethyl-7-(3-(2,4,5-trifluorophenyl)-7,8-dihydro-1,6-naphthyridin-6(5H)-yl)-4H-pyrimido[1,2-b]pyridazin-4-one]
79% | 6.31 | COc1cc(Cl)cc(Nc2cnc3c(c2)CN(c2nn4c(=O)ccnc4cc2C)CC3)c1 [Compound 2-82, 7-(3-((3-chloro-5-methoxyphenyl)amino)-7,8-dihydro-1,6-naphthyridin-6(5H)-yl)-8-methyl-4H-pyrimido[1,2-b]pyridazin-4-one]
68% | 6.04 | Cc1cc2nccc(=O)n2nc1N1CCc2ncc(-c3cnn4c3COCC4)cc2C1 [Compound 1-325, 7-(3-(6,7-dihydro-4H-pyrazolo[5,1-c][1,4]oxazin-3-yl)-7,8-dihydro-1,6-naphthyridin-6(5H)-yl)-8-methyl-4H-pyrimido[1,2-b]pyridazin-4-one]
87% | 6.64 | Cc1cc(=O)n2nc(N3CCc4ncc(-c5ccncc5C)cc4C3)c(C)cc2n1 [Compound 1-241, 2,8-dimethyl-7-(3-(3-methylpyridin-4-yl)-7,8-dihydro-1,6-naphthyridin-6(5H)-yl)-4H-pyrimido[1,2-b] pyridazin-4-one]
79% | 6.42 | COc1ccc(-c2cnc3c(c2)CN(c2nn4c(=O)cc(C)nc4cc2C)CC3)cc1F [Compound 1-216, 7-(3-(3-fluoro-4-methoxyphenyl)-7,8-dihydro-1,6-naphthyridin-6(5H)-yl)-2,8-dimethyl-4H-pyrimido[1,2-b]pyridazin-4-one]
81% | 5.95 | Cc1cc(=O)n2nc(N3CCc4ncc(-c5ccc(F)cc5F)cc4C3)c(C)c(C)c2n1 [Compound 1-279, 7-(3-(2,4-difluorophenyl)-7,8-dihydro-1,6-naphthyridin-6(5H)-yl)-2,8,9-trimethyl-4H-pyrimido[1,2-b]pyridazin-4-one]
62% | 6.25 | Cc1cc(=O)n2nc(N3CCc4ncc(-c5ccccc5O)cc4C3)c(C)cc2n1 [Compound 1-235, 7-(3-(2-hydroxyphenyl)-7,8-dihydro-1,6-naphthyridin-6(5H)-yl)-2,8-dimethyl-4H-pyrimido[1,2-b]pyridazin-4-one]
86% | 6.45 | Cc1cc2nccc(=O)n2nc1N1CCc2ncc(-c3cn(C)nc3C(F)F)cc2C1 [Compound 1-412, 7-(3-(3-(difluoromethyl)-1-methyl-1H-pyrazol-4-yl)-7,8-dihydro-1,6-naphthyridin-6(5H)-yl)-8-methyl-4H-pyrimido [1,2-b]pyridazin-4-one]
105% | 6.16 | Cc1ncc(CNc2cnc3c(c2)CN(c2nn4c(=O)ccnc4cc2C)CC3)o1 [Compound 2-129, 8-methyl-7-(3-(((2-methyloxazol-5-yl)methyl)amino)-7,8-dihydro-1,6-naphthyridin-6(5H)-yl)-4H-pyrimido[1,2-b]pyridazin-4-one]
96% | 6.89 | Cc1ccccc1-c1cnc2c(c1)CN(c1nn3c(=O)ccnc3cc1C)CC2 [Compound 1-431, 8-methyl-7-(3-(o-tolyl)-7,8-dihydro-1,6-naphthyridin-6(5H)-yl)-4H-pyrimido[1,2-b] pyridazin-4-one]
82% | 6.09 | Cc1cc(F)c(F)c(-c2cnc3c(c2)CN(c2nn4c(=O)cc(C)nc4c(C)c2C)CC3)c1 [Compound 1-272, 7-(3-(2,3-difluoro-5-methylphenyl)-7,8-dihydro-1,6-naphthyridin-6(5H)-yl)-2,8,9-trimethyl-4H-pyrimido[1,2-b]pyridazin-4-one]
89% | 6.35 | Cc1c(N2CCc3ncc(-c4cccc(F)c4)cc3C2)nn2c(=O)cc(C(F)F)nc2c1C [Compound 1-306, 2-(difluoromethyl)-7-(3-(3-fluorophenyl)-7,8-dihydro-1,6-naphthyridin-6(5H)-yl)-8,9-dimethyl-4H-pyrimido[1,2-b]pyridazin-4-one]
79% | 6.40 | Cc1c(N2CCc3ncc(-c4ccc(N5CCCCC5)nc4)cc3C2)nn2c(=O)ccnc2c1C [Compound 1-97, 8,9-dimethyl-7-(3-(6-(piperidin-1-yl)pyridin-3-yl)-7,8-dihydro-1,6-naphthyridin-6(5H)-yl)-4H-pyrimido[1,2-b]pyridazin-4-one]
93% | 7.77 | Cc1ccccc1Nc1cnc2c(c1)CN(c1nn3c(=O)ccnc3cc1C)CC2 [Compound 2-75, 8-methyl-7-(3-(o-tolylamino)-7,8-dihydro-1,6-naphthyridin-6(5H)-yl)-4H-pyrimido[1,2-b]pyridazin-4-one]
77% | 7.19 | Cc1cc(=O)n2nc(N3CCc4ncc(C(F)(F)F)cc4C3)c(C)c(C)c2n1 [Compound 1-33, 2,8,9-trimethyl-7-(3-(trifluoromethyl)-7,8-dihydro-1,6-naphthyridin-6(5H)-yl)-4H-pyrimido[1,2-b]pyridazin-4-one]
65% | 5.93 | Cc1cc2nccc(=O)n2nc1N1CCc2ncc(-n3cccn3)cc2C1 [Compound 2-6, 7-(3-(1H-pyrazol-1-yl)-7,8-dihydro-1,6-naphthyridin-6(5H)-yl)-8-methyl-4H-pyrimido[1,2-b]pyridazin-4-one]
103% | 6.90 | Cc1ccc(-c2cnc3c(c2)CN(c2nn4c(=O)cc(C(F)F)nc4c(C)c2C)CC3)cn1 [Compound 1-85, 2-(difluoromethyl)-8,9-dimethyl-7-(3-(6-methylpyridin-3-yl)-7,8-dihydro-1,6-naphthyridin-6(5H)-yl)-4H-pyrimido[1,2-b]pyridazin-4-one]
70% |  | Cc1ccnnc1-c1cnc2c(c1)CN(c1nn3c(=O)ccnc3cc1C)CC2 [Compound 1-356, 8-methyl-7-(3-(4-methylpyridazin-3-yl)-7,8-dihydro-1,6-naphthyridin-6(5H)-yl)-4H-pyrimido[1,2-b]pyridazin-4-one]
103% | 7.89 | Cc1c(N2CCc3ncc(N4CCCn5nccc54)cc3C2)nn2c(=O)ccnc2c1C [Compound 2-36, 7-(3-(6,7-dihydropyrazolo[1,5-a]pyrimidin-4(5H)-yl)-7,8-dihydro-1,6-naphthyridin-6(5H)-yl)-8,9-dimethyl-4H-pyrimido[1,2-b]pyridazin-4-one]
87% |  | Cc1cc2nccc(=O)n2nc1N1CCc2ncc(N3CCOC(c4ccccc4)C3)cc2C1 (stereo in doubt) [Compound 2-73, (S)-8-methyl-7-(3-(2-phenylmorpholino)-7,8-dihydro-1,6-naphthyridin-6(5H)-yl)-4H-pyrimido[1,2-b]pyridazin-4-one]
83% | 6.06 | Cc1cc(=O)n2nc(N3CCc4ncc(-c5ccc(F)nc5)cc4C3)c(C)cc2n1 [Compound 1-212, 7-(3-(6-fluoropyridin-3-yl)-7,8-dihydro-1,6-naphthyridin-6(5H)-yl)-2,8-dimethyl-4H-pyrimido[1,2-b]pyridazin-4-one]
83% | 6.05 | Cc1cc2nccc(=O)n2nc1N1CCc2ncc(Cc3cccnc3)cc2C1 [Compound 1-378, 8-methyl-7-(3-(pyridin-3-ylmethyl)-7,8-dihydro-1,6-naphthyridin-6(5H)-yl)-4H-pyrimido[1,2-b]pyridazin-4-one]
42% | 5.85 | Cc1cc2nccc(=O)n2nc1N1CCc2ncc(N3CCOC(c4ccccc4)C3)cc2C1 (stereo in doubt) [Compound 2-96, (R)-8-methyl-7-(3-(2-phenylmorpholino)-7,8-dihydro-1,6-naphthyridin-6(5H)-yl)-4H-pyrimido[1,2-b]pyridazin-4-one]
50% | 5.98 | Cc1c(N2CCc3ncc(N4C(=O)Cc5ncccc54)cc3C2)nn2c(=O)ccnc2c1C [Compound 2-149, 8,9-dimethyl-7-(3-(2-oxo-2,3-dihydro-1H-pyrrolo[3,2-b]pyridin-1-yl)-7,8-dihydro-1,6-naphthyridin-6(5H)-yl)-4H-pyrimido[1,2-b]pyridazin-4-one]
93% | 5.53 | Cc1cc(=O)n2nc(N3CCc4ncc(-c5cccnc5C)cc4C3)c(C)c(C)c2n1 [Compound 1-122, 2,8,9-trimethyl-7-(3-(2-methylpyridin-3-yl)-7,8-dihydro-1,6-naphthyridin-6(5H)-yl)-4H-pyrimido[1,2-b]pyridazin-4-one]
75% | 6.51 | CCc1cnc2cc(C)c(N3CCc4ncc(C(F)(F)F)cc4C3)nn2c1=O [Compound 1-24, 3-Ethyl-8-methyl-7-(3-(trifluoromethyl)-7,8-dihydro-1,6-naphthyridin-6(5H)-yl)-4H-pyrimido[1,2-b]pyridazin-4-one]
70% | 6.00 | Cc1cc2nccc(=O)n2nc1N1CCc2ncc(-c3cccc(C#N)c3C)cc2C1 [Compound 1-437, 2-methyl-3-(6-(8-methyl-4-oxo-4H-pyrimido[1,2-b]pyridazin-7-yl)-5,6,7,8-tetrahydro-1,6-naphthyridin-3-yl)benzonitrile]
